# Patent US20090163586A1, “Bis-(Sulfonylamino) Derivatives in Therapy 205” (AstraZeneca AB, priority 2007, published 2009)
# Target: T1, human mPGES-1 (Homo sapiens, UniProt O14684)
# T1 sequence (O14684 1-152): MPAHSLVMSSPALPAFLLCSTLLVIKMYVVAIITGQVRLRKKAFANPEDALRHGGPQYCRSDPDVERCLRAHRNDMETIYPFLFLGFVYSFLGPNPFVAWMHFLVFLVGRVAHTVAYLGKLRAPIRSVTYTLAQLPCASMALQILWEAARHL
# Test: Microsomal prostaglandin E synthase biochemical assay
# Conditions: microsome preparation containing human mPGES-1; PGH2 10.8 μM, GSH 2.5 mM, pH 6.8; PGE2 by HTRF; average of at least n=2
# Description: Compounds were tested as inhibitors of microsomal prostaglandin E synthase activity in microsomal prostaglandin E synthase assays and whole cell assays. These assays measure prostaglandin E2 (PGE2) synthesis which is taken as a measure of prostaglandin E synthase activity. Microsomal prostaglandin E synthase biochemical assays used microsomal prostaglandin E synthase-1 in microsomal preparations. The source of the microsomes can be for example interleukin-1β-stimulated human A549 cells (which express human mPGES-1) or Sf9 cells transfected with plasmids encoding human mPGES-1 cDNA. The whole blood assay [described by Patrignani, P. et al., Journal of Pharmacology and Experimental Therapeutics, 1994, vol. 271, pp 1705-1712] was used as the whole cell assay for testing the compounds. Whole blood provides a protein and cell rich milieu for the study of biochemical efficacy of anti-inflammatory compounds such as prostaglandin synthase inhibitors. To study the inhibitory activities of these compounds, human blood was stimulated with lipopolysaccharide (LPS) for typically 16 hours to induce mPGES-1 expression, after which the concentration of produced PGE2 was measured by competitive-immuno assay (homogeneous time-resolved fluorescence, HTRF) as read out for effectiveness against mPGES-1-dependent PGE2 production.
# Microsomal Prostaglandin E Synthase Biochemical Assay
# A solution of test compound was added to a diluted microsome preparation containing human mPGES-1 and pre-incubated for 15 minutes in potassium phosphate buffer pH 6.8 with cofactor glutathione (GSH). Corresponding solutions without test compound were used as positive controls, and corresponding solutions without test compound and without microsomes were used as negative controls. The enzymatic reaction was then started by addition of the substrate PGH2 in an organic solution (dry acetonitrile).
# The typical reaction conditions of the enzymatic reaction were thus: Test compound: ranging from 60 μM to 0.002 μM, or zero in positive and negative controls; potassium phosphate buffer pH 6.8: 50 mM; GSH: 2.5 mM; mPGES-1-containing microsomes: 2 μg/mL (sample and positive controls) or 0 μg/mL (negative control); PGH2: 10.8 μM; Acetonitrile: 7.7% (v/v); DMSO: 0.6% (v/v). The reaction was stopped after one minute by adding an acidic solution (pH 1.9) of ferric chloride and citrate (final concentrations 7 mM and 47 mM respectively), by which the PGH2 was sequestered (the PGH2 is reduced to mainly 12-hydroxy heptadecatrineoic acid (12-HHT) which is not detected by the subsequent PGE2 detection step). The resulting solution was then pH neutralized by addition of potassium phosphate buffer, prior to diluting an aliquot of the resulting solution in a weak potassium phosphate buffer (50 mM, pH 6.8) containing 0.2% BSA (w/v). [Adapted from Jacobsson et al., Proc. Natl. Acad. Sci. USA, 1999, vol. 96, pp. 7220-7225]The PGE2 formed was quantified by use of a commercial HTRF based kit (catalogue #62PG2PEC or #62P2APEC from Cisbio International). 100% activity was defined as the PGE2 production in positive controls subtracted by the PGE2 production in the negative controls. IC50 values were then determined using standard procedures.
# The potency is expressed as IC50 and the value indicated is an average of at least n=2.
row,IC50 [nM],SMILES
1,44,"NS(=O)(=O)c1ccccc1NS(=O)(=O)/C=C/c1ccc(-c2ccco2)cc1 [Example 18, 2-[[(E)-2-[4-(2-Furyl)phenyl]ethenyl]sulfonylamino]benzenesulfonamide]"
2,1400,"NS(=O)(=O)c1ccccc1NS(=O)(=O)CCc1ccc(OC(F)F)cc1 [Example 19, 2-[2-[4-(Difluoromethoxy)phenyl]ethylsulfonylamino]benzenesulfonamide]"
3,700,"NS(=O)(=O)c1ccccc1NS(=O)(=O)/C=C/c1ccc(OC(F)F)cc1 [Example 20, 2-[[(E)-2-[4-(Difluoromethoxy)phenyl]ethenyl]sulfonylamino]benzenesulfonamide]"
4,320,"NS(=O)(=O)c1cc(F)ccc1NS(=O)(=O)CCc1ccc(Cl)cc1 [Example 21, 2-[2-(4-Chlorophenyl)ethylsulfonylamino]-5-fluoro-benzenesulfonamide]"
5,430,"NS(=O)(=O)c1cc(F)ccc1NS(=O)(=O)/C=C/c1ccc(Cl)cc1 [Example 22, 2-[[(E)-2-(4-Chlorophenyl)ethenyl]sulfonylamino]-5-fluoro-benzenesulfonamide]"
6,270,"NS(=O)(=O)c1ccc(F)cc1NS(=O)(=O)/C=C/c1ccc(Cl)c(Cl)c1 [Example 23, 2-[[(E)-2-(3,4-Dichlorophenyl)ethenyl]sulfonylamino]-4-fluoro-benzenesulfonamide]"
7,300,"NS(=O)(=O)c1cc(F)ccc1NS(=O)(=O)/C=C/c1ccc(Cl)c(Cl)c1 [Example 24, 2-[[(E)-2-(3,4-Dichlorophenyl)ethenyl]sulfonylamino]-5-fluoro-benzenesulfonamide]"
8,77,"NS(=O)(=O)c1c(F)cccc1NS(=O)(=O)/C=C/c1ccc(Cl)c(Cl)c1 [Example 25, 2-[[(E)-2-(3,4-Dichlorophenyl)ethenyl]sulfonylamino]-6-fluoro-benzenesulfonamide]"
9,420,"COc1ccc(Br)cc1/C=C/S(=O)(=O)Nc1cc(F)ccc1S(N)(=O)=O [Example 26, 2-[[(E)-2-(5-Bromo-2-methoxy-phenyl)ethenyl]sulfonylamino]-4-fluoro-benzenesulfonamide]"
10,270,"COc1ccc(Br)cc1/C=C/S(=O)(=O)Nc1ccc(F)cc1S(N)(=O)=O [Example 27, 2-[[(E)-2-(5-Bromo-2-methoxy-phenyl)ethenyl]sulfonylamino]-5-fluoro-benzenesulfonamide]"
11,290,"COc1ccc(Br)cc1/C=C/S(=O)(=O)Nc1cccc(F)c1S(N)(=O)=O [Example 28, 2-[[(E)-2-(5-Bromo-2-methoxy-phenyl)ethenyl]sulfonylamino]-6-fluoro-benzenesulfonamide]"
12,280,"COc1ccc(Br)cc1/C=C/S(=O)(=O)Nc1ccccc1S(N)(=O)=O [Example 29, 2-[[(E)-2-(5-Bromo-2-methoxy-phenyl)ethenyl]sulfonylamino]benzenesulfonamide]"
13,5900,"N#Cc1ccc(/C=C/S(=O)(=O)Nc2cc(F)ccc2S(N)(=O)=O)cc1 [Example 30, 2-[[(E)-2-(4-Cyanophenyl)ethenyl]sulfonylamino]-4-fluoro-benzenesulfonamide]"
14,5700,"N#Cc1ccc(/C=C/S(=O)(=O)Nc2ccc(F)cc2S(N)(=O)=O)cc1 [Example 31, 2-[[(E)-2-(4-Cyanophenyl)ethenyl]sulfonylamino]-5-fluoro-benzenesulfonamide]"
15,5100,"N#Cc1ccc(/C=C/S(=O)(=O)Nc2cccc(F)c2S(N)(=O)=O)cc1 [Example 32, 2-[[(E)-2-(4-Cyanophenyl)ethenyl]sulfonylamino]-6-fluoro-benzenesulfonamide]"
16,1100,"N#Cc1ccc(/C=C/S(=O)(=O)Nc2ccccc2S(N)(=O)=O)cc1 [Example 33, 2-[[(E)-2-(4-Cyanophenyl)ethenyl]sulfonylamino]benzenesulfonamide]"
17,120,"NS(=O)(=O)c1ccc(F)cc1NS(=O)(=O)/C=C/c1ccc(-c2ccco2)cc1 [Example 34, 4-Fluoro-2-[[(E)-2-[4-(2-furyl)phenyl]ethenyl]sulfonylamino]benzenesulfonamide]"
18,170,"NS(=O)(=O)c1cc(F)ccc1NS(=O)(=O)/C=C/c1ccc(-c2ccco2)cc1 [Example 35, 5-Fluoro-2-[[(E)-2-[4-(2-furyl)phenyl]ethenyl]sulfonylamino]benzenesulfonamide]"
19,57,"NS(=O)(=O)c1c(F)cccc1NS(=O)(=O)/C=C/c1ccc(-c2ccco2)cc1 [Example 36, 2-Fluoro-6-[[(E)-2-[4-(2-furyl)phenyl]ethenyl]sulfonylamino]benzenesulfonamide]"
20,160,"CSc1ccc(/C=C/S(=O)(=O)Nc2cc(F)ccc2S(N)(=O)=O)cc1 [Example 37, 4-Fluoro-2-[[(E)-2-(4-methylsulfanylphenyl)ethenyl]sulfonylamino]-benzenesulfonamide]"
21,220,"CSc1ccc(/C=C/S(=O)(=O)Nc2ccc(F)cc2S(N)(=O)=O)cc1 [Example 38, 5-Fluoro-2-[[(E)-2-(4-methylsulfanylphenyl)ethenyl]sulfonylamino]-benzenesulfonamide]"
22,1400,"CSc1ccc(/C=C/S(=O)(=O)Nc2cccc(F)c2S(N)(=O)=O)cc1 [Example 39, 2-Fluoro-6-[[(E)-2-(4-methylsulfanylphenyl)ethenyl]sulfonylamino]-benzenesulfonamide]"
23,1200,"CSc1ccc(/C=C/S(=O)(=O)Nc2ccccc2S(N)(=O)=O)cc1 [Example 40, 2-[[(E)-2-(4-Methylsulfanylphenyl)ethenyl]sulfonylamino]benzenesulfonamide]"
24,1100,"NS(=O)(=O)c1ccc(F)cc1NS(=O)(=O)/C=C/c1ccc(OC(F)F)cc1 [Example 41, 2-[[(E)-2-[4-(Difluoromethoxy)phenyl]ethenyl]sulfonylamino]-4-fluoro-benzenesulfonamide]"
25,1600,"NS(=O)(=O)c1cc(F)ccc1NS(=O)(=O)/C=C/c1ccc(OC(F)F)cc1 [Example 42, 2-[[(E)-2-[4-(Difluoromethoxy)phenyl]ethenyl]sulfonylamino]-5-fluoro-benzenesulfonamide]"
26,110,"NS(=O)(=O)c1c(F)cccc1NS(=O)(=O)/C=C/c1ccc(OC(F)F)cc1 [Example 43, 2-[[(E)-2-[4-(Difluoromethoxy)phenyl]ethenyl]sulfonylamino]-6-fluoro-benzenesulfonamide]"
27,750,"NS(=O)(=O)c1cc(CO)ccc1NS(=O)(=O)CCc1ccc(Cl)cc1 [Example 44, 2-[2-(4-Chlorophenyl)ethylsulfonylamino]-5-(hydroxymethyl)benzenesulfonamide]"
28,1300,"Cc1ccc(NS(=O)(=O)CCc2ccc(Cl)cc2)c(S(N)(=O)=O)c1 [Example 45, 2-[2-(4-Chloro-phenyl)-ethanesulfonylamino]-5-methylbenzenesulfonamide]"
29,1100,"NS(=O)(=O)c1cc(OCc2ccccn2)ccc1NS(=O)(=O)CCc1ccc(Cl)cc1 [Example 46, 2-[2-(4-Chlorophenyl)ethylsulfonylamino]-5-(pyridin-2-ylmethoxy)benzenesulfonamide]"
30,1600,"Cc1nnc(COc2ccc(NS(=O)(=O)CCc3ccc(Cl)cc3)c(S(N)(=O)=O)c2)o1 [Example 47, 2-[2-(4-Chlorophenyl)ethylsulfonylamino]-5-[(5-methyl-1,3,4-oxadiazol-2-yl)methoxy]benzenesulfonamide]"
